In ChEMBL document CHEMBL1201862, “PubChem BioAssay data set” (2004):
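48-hour exposure; five concentrations; linearly interpolated endpoints. The concentration for 50% growth inhibition is given as GI50.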 Calls of active or inactive are those of the source. Rule as the data show it: active = GI50 up to about 1.1 µM and inactive = higher.

Tests used:
Assay in all cases: NCI-60 cell line screen, 48 h
A549 = system: A549
BT-549 = system: BT-549
CCRF-CEM = system: CCRF-CEM
COLO 205 = system: COLO 205
HCT-116 = system: HCT-116
HOP-62 = system: HOP-62
HT-29 = system: HT-29
IGROV-1 = system: IGROV-1
M14 = system: M14
MCF7 = system: MCF7
MDA-MB-231 = system: MDA-MB-231
MOLT-4 = system: MOLT-4
NCI-H23 = system: NCI-H23
OVCAR-5 = system: OVCAR-5
SK-MEL-28 = system: SK-MEL-28
SR = system: SR
SW-620 = system: SW-620
Hs-578T = system: Hs-578T
RXF 393 = system: RXF 393
MDA-N = system: MDA-N

SMILES | GI50 (A549) | GI50 (BT-549) | GI50 (CCRF-CEM) | GI50 (COLO 205) | GI50 (HCT-116) | GI50 (HOP-62) | GI50 (HT-29) | GI50 (IGROV-1) | GI50 (M14) | GI50 (MCF7) | GI50 (MDA-MB-231) | GI50 (MOLT-4) | GI50 (NCI-H23) | GI50 (OVCAR-5) | GI50 (SK-MEL-28) | GI50 (SR) | GI50 (SW-620) | GI50 (Hs-578T) | GI50 (RXF 393) | GI50 (MDA-N)
Nn1nnc2ccccc21 | > 100 µM (inactive) | > 100 µM (inactive) | > 100 µM (inactive) | > 100 µM (inactive) | > 100 µM (inactive) | > 100 µM (inactive) | > 100 µM (inactive) | > 100 µM (inactive) | > 100 µM (inactive) | > 100 µM (inactive) | > 100 µM (inactive) | > 100 µM (inactive) | > 100 µM (inactive) | > 100 µM (inactive) | > 100 µM (inactive) | > 100 µM (inactive) | > 100 µM (inactive) |  |  | 
Cc1ccccc1N/C(=C(/C(Cl)=C(Cl)Cl)[N+](=O)[O-])n1nnc2ccccc21 | 41.7 µM (inactive) | 14.1 µM (inactive) | 29.6 µM (inactive) | 15.7 µM (inactive) | 42.4 µM (inactive) | 16.9 µM (inactive) | 19.4 µM (inactive) |  | 24.5 µM (inactive) | 27.7 µM (inactive) | 21.3 µM (inactive) | > 100 µM (inactive) | 19.1 µM (inactive) | 16.8 µM (inactive) | 17 µM (inactive) |  | 15.9 µM (inactive) | 11.6 µM (inactive) |  | 
CCN(CC)C(=O)Cn1c2ccccc2[n+]2cc(N)ccc12 | > 100 µM (inactive) | > 100 µM (inactive) | > 100 µM (inactive) | > 100 µM (inactive) | > 100 µM (inactive) | > 100 µM (inactive) | > 100 µM (inactive) | > 100 µM (inactive) | > 100 µM (inactive) | > 100 µM (inactive) | > 100 µM (inactive) | > 100 µM (inactive) | > 100 µM (inactive) | > 100 µM (inactive) | > 100 µM (inactive) | > 100 µM (inactive) | > 100 µM (inactive) | > 100 µM (inactive) | > 100 µM (inactive) | 
COc1ccc(OC)c(C2CCCc3c2cnc2nc(N)nc(N)c32)c1 (stereo unspecified) | < 0.01 µM (active) |  |  | 0.352 µM (active) | < 0.01 µM (active) |  | < 0.01 µM (active) | < 0.01 µM (active) | < 0.01 µM (active) | < 0.01 µM (active) | > 100 µM (inactive) | < 0.0168 µM (active) | < 0.01 µM (active) |  | > 100 µM (inactive) | < 0.01 µM (active) |  | > 57.3 µM (inactive) | < 0.0129 µM (active) | < 0.01 µM (active)
COc1ccc2nc(/C(N)=C\C#N)ccc2c1 | 47.2 µM (inactive) |  | 40.3 µM (inactive) | 56 µM (inactive) | 20.3 µM (inactive) | > 100 µM (inactive) | 47.6 µM (inactive) | 29.9 µM (inactive) | 42.1 µM (inactive) | > 100 µM (inactive) | > 100 µM (inactive) | 23.9 µM (inactive) | 90.2 µM (inactive) | > 100 µM (inactive) | > 100 µM (inactive) | 22.3 µM (inactive) | > 100 µM (inactive) | 1.01 µM (active) | 1.89 µM (inactive) | 45.3 µM (inactive)
O=C(Nc1ccc(Cl)cc1)c1cc2c(cc1Cl)SC(NNCCO)=NS2(=O)=O |  | > 100 µM (inactive) | > 100 µM (inactive) | 49.7 µM (inactive) | > 100 µM (inactive) | > 100 µM (inactive) | > 100 µM (inactive) | > 100 µM (inactive) | > 100 µM (inactive) | 98.9 µM (inactive) | > 100 µM (inactive) | > 100 µM (inactive) | > 100 µM (inactive) |  | > 100 µM (inactive) | > 100 µM (inactive) | > 100 µM (inactive) | > 100 µM (inactive) | > 100 µM (inactive) | 
COc1cc2c(cc1OC)C(N)CC2=O (stereo unspecified) | > 100 µM (inactive) | > 100 µM (inactive) | > 100 µM (inactive) | > 100 µM (inactive) | > 100 µM (inactive) | > 100 µM (inactive) | > 100 µM (inactive) | > 100 µM (inactive) | > 100 µM (inactive) | > 100 µM (inactive) | > 100 µM (inactive) | > 100 µM (inactive) | > 100 µM (inactive) | > 100 µM (inactive) | > 100 µM (inactive) | > 100 µM (inactive) | > 100 µM (inactive) | > 100 µM (inactive) | > 100 µM (inactive) | 
O=C1c2c(ccc3c2CCC3)CC12Cc1cc3c(cc1C2)CCC3 | > 100 µM (inactive) |  | > 100 µM (inactive) | > 100 µM (inactive) | > 100 µM (inactive) | > 100 µM (inactive) | > 100 µM (inactive) | > 100 µM (inactive) | > 100 µM (inactive) | > 100 µM (inactive) | > 100 µM (inactive) | > 100 µM (inactive) | > 100 µM (inactive) | > 100 µM (inactive) | > 100 µM (inactive) | > 100 µM (inactive) | > 100 µM (inactive) | > 100 µM (inactive) | > 100 µM (inactive) | > 100 µM (inactive)
